Several values for one entry are separate records, joined by “and”; a condition that tells them apart may be missing. Identical values can stand only once.

The subject of the assay is P. falciparum 3D7 growth, pLDH absorbance. The experiment in a line: blood-stage malaria parasite growth potency – strain 3D7, dose response (AID 2305).
`O=C(/C=C/c1ccc(Cl)c(Cl)c1)NCCCCCN1CCC(NC(=O)Nc2ccc([N+](=O)[O-])cc2)CC1` returned an IC50 of 0.69 µM.
As for `COc1cc2nc(Nc3ccc4c(c3)OCCO4)nc(N)c2cc1OC`, the IC50 turned out to be 0.47 µM.
As for `O=C(/C=C/c1ccc(Cl)c(Cl)c1)NCCCCCN1CCC(CCCNC(=O)Nc2ccc(C(F)(F)F)cc2)CC1`, the figure is 0.87 µM.
As for `COC(=O)c1ccc(N2CCN(CCCCNC(=O)c3ccc(NC(=O)c4ccc(Cl)cc4)cc3)CC2)c(OC)c1`, the figure is 1.3 µM.
As for `CCOC(=O)c1c(C)n(-c2ccccc2)c2ccc(OC(=O)c3ccc(S(=O)(=O)N(CC)CC)cc3)cc12`, the figure is 0.75 µM; as for `Cc1nc2nc(N)nc(N)c2c(C)c1Cc1ccc(Cl)cc1`, 0.22 µM; as for `COc1ccc(COc2c(OC)cc(Cc3cnc(N)nc3N)cc2OC)cc1`, 0.91 µM.
With `Cc1cc(C(=O)CSc2nc3ccccc3n2-c2ccccc2)c(C)n1C1CCS(=O)(=O)C1` (stereo not drawn), the IC50 turned out to be 1 µM.
On to `Cc1cc(N)c2cc(NC(=O)c3ccc4ccccc4c3)ccc2n1`, for which the half-maximal inhibitory concentration (IC50) is 0.25 µM.
`Cc1[nH]c2ccc(C#N)cc2c(=O)c1Br` returned a 50% inhibitory concentration (IC50) of 0.64 µM.
For `O=C(CCc1ccc(Cl)cc1Cl)NC1CCC(CN2CCC(c3c[nH]c4ccccc34)CC2)CC1` (stereo not drawn), the half-maximal inhibitory concentration (IC50) is 0.9 µM and 0.22 µM.
`O=c1cc(NCCCNCc2ccc(C(F)(F)F)s2)[nH]c2ccccc12`: the 50% inhibitory concentration (IC50) is 0.2 µM.
As for `COC(=O)c1ccc(CC(C)NCC(O)c2cccc(SC(F)(F)F)c2)cc1` (stereo not drawn), the concentration for half-maximal inhibition (IC50) stood at 0.89 µM.
As for `Cc1ccc(NC(=O)Nc2ccc(Cn3ncc(N4CCCNCC4)c(Cl)c3=O)cc2)cc1`, the figure is 0.92 µM; as for `CC[C@H]1CN2CC[C@H]1C[C@H]2[C@H](O)c1cc(-c2cccc(C)c2)nc2ccc(OC)cc12`, 0.16 µM.
Compound `COc1ccc(NC(=O)[C@H](Cc2ccccc2)Nc2cc(C)nc(NCCc3cccs3)n2)cc1` showed an IC50 of 0.75 µM.
As for `O=C(Nc1cccc(C(F)(F)F)c1)N1CCOC(CCN2CCC(c3ccccc3)CC2)(c2ccc(Cl)c(Cl)c2)C1` (stereo not drawn), the figure is 1.11 µM.
As for `CC1(CCc2ccccc2)N=C(N)N(Cc2ccccc2)C(=O)C1c1ccc(Cl)c(Cl)c1` (stereo not drawn), the figure is 0.81 µM; as for `CCNc1cc(C)nc(Nc2ccc(C)cc2)n1`, 0.73 µM; as for `CCCC(C)Nc1nc(C)cc(N[C@@H](Cc2ccccc2)C(=O)NCCOc2ccccc2)n1` (stereo partly drawn), 0.7 µM.
As for `Cc1noc(-c2cccs2)c1C(=O)NC(C)c1cccc2ccccc12` (stereo not drawn), the figure is 0.13 µM; as for `Nc1nc(N)c2cc(Cc3ccccc3Cl)cnc2n1`, 0.11 µM; as for `O=C(/C=C/c1ccc(Cl)c(Cl)c1)NCCCCCN1CCC(NC(=O)Nc2ccc(Cl)cc2F)CC1`, 0.31 µM.
In turn, `CC(=O)N1CCC(C(=O)Nc2ccc(-c3cccc(-c4nc5ccc(C(F)(F)F)cc5[nH]4)c3)cc2)CC1` came in with a concentration for half-maximal inhibition (IC50) of 0.24 µM.
As to `CS(=O)(=O)CCNCc1cccc(-c2ccc3c(Nc4ccc(Oc5ccccc5)cc4)ccnc3c2)c1`, the half-inhibitory concentration (IC50) turned out to be 0.69 µM.
As for `COC(=O)C(=O)c1c(-c2ccccc2)c(-c2ccc(OC)c(OC)c2)c2c3cc(OC)c(OC)cc3ccn12`, the figure is 0.64 µM.
For the compound `NCc1ccc(CNCc2cccc(-c3ccc(-c4nc5ccccc5[nH]4)cc3)c2)cc1`, the 50% inhibitory concentration (IC50) worked out at 0.72 µM.
As for `COc1ccc(-c2cc(-c3ccc(S(C)(=O)=O)cc3)cnc2N)cn1`, the figure is 0.19 µM; as for `Cc1c2ccncc2c(C)c2c1[nH]c1ccccc12`, 0.8 µM.
As for `O=C(NCc1cccc(C(F)(F)F)c1)[C@@H]1CCCN1C(=O)c1ccc(O)c(-c2ccc(Cl)c(Cl)c2)c1`, the figure is 0.79 µM; as for `Cc1ccc(Nc2nc(C)cc(Nc3cccc(NS(C)(=O)=O)c3)n2)cc1`, 0.92 µM.
In turn, `Cc1cc(N)c2cc(NC(=O)c3cccc4ccccc34)ccc2n1` had an IC50 of 0.84 µM.
For `CCn1c(SCc2ccc(F)cc2)nc2sc3c(c2c1=O)CCN(C)C3`, the IC50 is 0.25 µM.
`Cc1cc(C2CCN(CCCCNC(=O)c3ccc(NC(=O)c4ccc(Cl)cc4)cc3)CC2)c(C)cc1OCc1cccnc1` showed a half-maximal inhibitory concentration (IC50) of 0.6 µM.
For the compound `N#Cc1cccc(-c2nc(NCc3cccc(C(F)(F)F)c3)nn2-c2cccc(C(F)(F)F)c2)c1`, the IC50 is 0.59 µM.
As for `Nc1ncnc2cc(-c3cccc(NC(=O)Nc4ccccc4)c3)sc12`, the figure is 0.71 µM; as for `CC(C)(C)N1CCC(N(Cc2ccc(-c3ccc(C(F)(F)F)cc3)cc2)C(=O)Cn2c(CCc3cccc(F)c3F)cc(=O)c3cccnc32)CC1`, 0.71 µM.
As for `Cc1ccccc1CNc1noc(-c2c(-c3ccccc3)noc2C)n1`, the figure is 0.9 µM; as for `O=[N+]([O-])c1ccc(N2CCCN(C(=S)Nc3ccc(F)cc3Br)CC2)nc1`, 0.3 µM; as for `Fc1cccc(COc2ccc(-n3ccc4c(NCCCn5ccnc5)ncnc43)cc2Cl)n1`, 1.03 µM.
`CN1CCc2ccc(NC(=O)Nc3cccc(C(=O)c4ccccc4)c3)cc2C1` gave an IC50 of 0.92 µM.
As to `c1ccc2c(c1)CN(Cc1cc3ccccc3[nH]1)CC1(CCN(Cc3c[nH]c4cnccc34)CC1)O2`, the IC50 is 0.31 µM.
As for `Cc1cccc(Nc2nc(C)cc(N3CCCN(CC4CCCCC4)CC3)n2)c1`, the figure is 1.12 µM; as for `O=C(NC1CCC(CN2CCC(c3c[nH]c4ccccc34)CC2)CC1)c1cc(-c2ccccc2Cl)oc1C(F)(F)F` (stereo not drawn), 0.77 µM.
`O=C(c1cccs1)N(Cc1cccc(-c2ccc(CNC3CCCC3)cc2)c1)C1CCN(Cc2ccccc2)CC1` gave an IC50 of 1.13 µM.
As for `CCC1(C)CC(CCNCc2ccccc2O)(c2ccc(F)cc2)CCO1` (stereo not drawn), the figure is 0.88 µM.
Compound `COc1ccc2ncc(F)c(CCN3C[C@H](CNCc4cc(F)c5c(c4)NC(=O)CO5)[C@H](O)C3)c2n1` yielded a half-maximal inhibitory concentration (IC50) of 0.67 µM.
In turn, `COc1ccccc1NC(=O)Nc1ccc(-c2ccc(-c3nc4c(C)cccc4[nH]3)s2)cc1` displayed a half-maximal inhibitory concentration (IC50) of 0.16 µM.
As for `CCCC(C)NC(=O)[C@H]1CNCCN1C(=O)CCCc1ccccc1` (stereo partly drawn), the figure is 0.19 µM.
As for `CCOc1c(CNCCCNc2nc3ccccc3[nH]2)cc(I)cc1OC`, the IC50 was found to be 0.66 µM.
The compound `Cc1cc2ncn(-c3ccnc(N4CCN(CCCN5CCCC5)CC4)n3)c2cc1C` registered an IC50 of 0.83 µM.
Take `O=C(c1ccc(-c2ccc(-c3nc4ccccc4[nH]3)s2)cc1)N1CCCCC1CN1CCC(O)C1` (stereo not drawn): the IC50 worked out at 1.05 µM.
On to `CC[C@H]1CN2CC[C@H]1C[C@H]2[C@H](O)c1cc(/C=C/c2ccccc2)nc2ccc(OC)cc12`, for which the half-maximal inhibitory concentration (IC50) was found to be 0.04 µM.
`CC(=NNC(=S)NCCc1ccccn1)c1ccccn1`: the half-maximal inhibitory concentration (IC50) was determined as 0.32 µM.
`CN1CCN(CC(=O)Nc2cccc(-c3cccc(-c4nc5ccc(C(F)(F)F)cc5[nH]4)c3)c2)CC1` registered an IC50 of 0.37 µM.
As for `O=C(NCC1CC1)C1CCN(C(c2ccccc2)c2cc(F)cc(F)c2)CC1` (stereo not drawn), the figure is 0.38 µM.
As for `O=C(Nc1cccc(OC2CCN(Cc3ccccc3)CC2)c1)c1ccc(Cl)c(Cl)c1`, the figure is 0.72 µM.
With `COc1ccc(C(=O)[C@H]2C[C@@H]2CN2CC=C(c3c[nH]c4cccc(Br)c34)CC2)cc1`, the half-inhibitory concentration (IC50) was determined as 0.93 µM.
For `CCCc1cn2c3c(cc(C(=O)N[C@@H](Cc4ccccc4)[C@H](O)CNC4CCOCC4)cc13)N(CC)S(=O)(=O)CC2`, the IC50 came out at 0.1 µM.
As for `CC(=O)N(Cc1cccc(-c2cccc(CNCCc3ccccc3)c2)c1)C1CCN(Cc2ccccc2)CC1`, the figure is 0.67 µM; as for `O=C(Nc1cccc(-c2ccc(-c3nc4ccccc4[nH]3)cc2)c1)c1cccnc1`, 1.04 µM.
Regarding `CC(=O)Nc1nc(C(=O)Nc2ccc(-c3cccc(-c4nc5c(C)cccc5[nH]4)c3)cc2)cs1`, the IC50 is 0.23 µM.
As for `CN(C)CC(O)COc1ccc(Nc2ncc([N+](=O)[O-])c(Nc3ccccc3O)n2)cc1` (stereo not drawn), the figure is 0.76 µM; as for `O=C(NC1CC1)c1cnc(N2CCC(c3ccccc3)CC2)c(Cl)c1`, 0.85 µM; as for `Oc1c(C=Nn2cnnc2)sc2ccccc12`, 0.91 µM.
In the case of `COc1cc2ncnc(Nc3ccc(OCc4ccccc4)c(OCc4ccccc4)c3)c2cc1OC`, the 50% inhibitory concentration (IC50) amounted to 0.74 µM.
As for `CC(C)N1CCC(N(Cc2ccc(-c3ccc(C(F)(F)F)cc3)cc2)C(=O)Cn2c(CCc3cccc(F)c3F)cc(=O)c3ccccc32)CC1`, the figure is 0.85 µM.
As for `COc1ccc(CN2CCCC(C(=O)c3ccc(C(F)(F)F)cc3)C2)c(O)c1` (stereo not drawn), the figure is 0.85 µM; as for `Fc1ccc2nc(-c3ccc(-c4ccc(CNCCc5cccnc5)cc4)s3)[nH]c2c1`, 0.24 µM.
As for `CC[C@H](C)CNC(=O)c1ccc(-c2cccc(CN3CCC(N4CCCC4)CC3)c2)nc1`, the figure is 0.79 µM.
`Oc1c(C(Nc2nc3ccccc3s2)c2ccccc2)ccc2cccnc12` (stereo not drawn): the IC50 was determined as 0.65 µM.
As for `N#CN1CC[C@H](CS(=O)(=O)c2cccc(Br)c2)C1`, the IC50 is 0.87 µM.
As for `Nc1c2ccccc2nc2ccc(-c3ccccc3)cc12`, the figure is 0.14 µM.
As for `CC(=Nc1ccc(Cl)c(Cl)c1)N(C)C`, the figure is 0.54 µM; as for `O=C(/C=C/c1ccc(Cl)c(Cl)c1)NCCCCCCN1CCCN(C(=O)Nc2ccc(F)c(Cl)c2)CC1`, 0.74 µM.
In the case of `CCCO[C@H](C(=O)OC)[C@@H](CC1Cc2ccccc2C1)C(=O)NCCC1=CCCCC1`, the IC50 came out at 0.97 µM.
The compound `N=C1C=C(N)C(=O)c2ccccc21` displayed an IC50 of 1.05 µM.
As for `CCN(CC)CCCNc1c2ccccc2nc2ccccc12`, the figure is 0.75 µM.
As for `COC(=O)/C=C/C(=O)N[C@@H]1CC[C@@]2(O)[C@H]3Cc4ccc(O)c5c4[C@@]2(CCN3CC2CC2)[C@H]1O5`, the figure is 0.64 µM.
As for `COc1ccccc1NC(=O)CSc1nc2cccnc2n1-c1ccccc1OC`, the figure is 0.36 µM; as for `Cc1ccc(C)c2sc(N(CCCn3ccnc3)C(=O)C=Cc3cccs3)nc12`, 1.06 µM.
As to `CCOc1ccc2nc(C)cc(NN=Cc3ccccc3Cl)c2c1`, the half-maximal inhibitory concentration (IC50) was determined as 0.19 µM.
As for `CCOC(=O)C(CO)NC(=O)c1ccc([N+](=O)[O-])o1` (stereo not drawn), the figure is 0.29 µM; as for `Cc1ccc(C2(CN3CCC(NC(=O)c4ccn[nH]4)CC3)CCCCC2)cc1`, 0.22 µM.
As for `COc1ccc(-n2nc(C(=O)NCCC3=CCCCC3)c3ccccc3c2=O)cc1`, the figure is 0.68 µM.
On to `Cc1cc(CNCC(CCNc2cc(=O)c3ccccc3[nH]2)NCc2cc(Br)cc(Br)c2)oc1C` (stereo not drawn), for which the IC50 stood at 0.89 µM.
As for `O=C(Nc1ccccc1C(F)(F)F)Nc1nn(Cc2c(F)cccc2Cl)cc1Br`, the figure is 0.34 µM; as for `O=C(C=Cc1ccc(Cl)c(Cl)c1)NCCCCCN1CCC(CCCNS(=O)(=O)c2ccc(Br)cc2)CC1`, 1.13 µM.

Source of the values: PubChem BioAssay AID2305 (GlaxoSmithKline (GSK), 2010).
